In patent US20240216281A1, “MANUFACTURING METHOD OF MEDICATION” (YUNG SHIN PHARM. IND. CO., LTD., priority 2022, published 2024):

Test: particle size distribution (PSD) of crystals within the medication
Type: physicochemical
Conditions: first embodiment: dry powder filling technology

Row | Structure (SMILES) | 10% of the crystals having a particle size (D10) of less than | 50% of the crystals having a particle size (D50) of less than | 90% of the crystals having a particle size (D90) of less than (unit not given) | 90% of the crystals having a particle size (D90) of less than
1 | CC1(C)O[C@@H]2C[C@H]3[C@@H]4CCC5=CC(=O)C=C[C@]5(C)[C@@]4(F)[C@@H](O)C[C@]3(C)[C@]2(C(=O)CO)O1 [triamcinolone acetonide] | less than 4.444 μm | less than 11.189 μm | less than 30.504 | –
2 | OCc1ccc(-c2nn(Cc3ccccc3)c3ccccc23)o1 [YC-1 compound] | less than 0.648 μm | less than 14.061 μm | – | less than 215.136 μm
